The test deals with PIK3CA (human) (UniProt P42336). In words: Assessment of PI3KCA Kinase Activity.
PIK3CA (human), sequence (P42336 whole entry, looked up): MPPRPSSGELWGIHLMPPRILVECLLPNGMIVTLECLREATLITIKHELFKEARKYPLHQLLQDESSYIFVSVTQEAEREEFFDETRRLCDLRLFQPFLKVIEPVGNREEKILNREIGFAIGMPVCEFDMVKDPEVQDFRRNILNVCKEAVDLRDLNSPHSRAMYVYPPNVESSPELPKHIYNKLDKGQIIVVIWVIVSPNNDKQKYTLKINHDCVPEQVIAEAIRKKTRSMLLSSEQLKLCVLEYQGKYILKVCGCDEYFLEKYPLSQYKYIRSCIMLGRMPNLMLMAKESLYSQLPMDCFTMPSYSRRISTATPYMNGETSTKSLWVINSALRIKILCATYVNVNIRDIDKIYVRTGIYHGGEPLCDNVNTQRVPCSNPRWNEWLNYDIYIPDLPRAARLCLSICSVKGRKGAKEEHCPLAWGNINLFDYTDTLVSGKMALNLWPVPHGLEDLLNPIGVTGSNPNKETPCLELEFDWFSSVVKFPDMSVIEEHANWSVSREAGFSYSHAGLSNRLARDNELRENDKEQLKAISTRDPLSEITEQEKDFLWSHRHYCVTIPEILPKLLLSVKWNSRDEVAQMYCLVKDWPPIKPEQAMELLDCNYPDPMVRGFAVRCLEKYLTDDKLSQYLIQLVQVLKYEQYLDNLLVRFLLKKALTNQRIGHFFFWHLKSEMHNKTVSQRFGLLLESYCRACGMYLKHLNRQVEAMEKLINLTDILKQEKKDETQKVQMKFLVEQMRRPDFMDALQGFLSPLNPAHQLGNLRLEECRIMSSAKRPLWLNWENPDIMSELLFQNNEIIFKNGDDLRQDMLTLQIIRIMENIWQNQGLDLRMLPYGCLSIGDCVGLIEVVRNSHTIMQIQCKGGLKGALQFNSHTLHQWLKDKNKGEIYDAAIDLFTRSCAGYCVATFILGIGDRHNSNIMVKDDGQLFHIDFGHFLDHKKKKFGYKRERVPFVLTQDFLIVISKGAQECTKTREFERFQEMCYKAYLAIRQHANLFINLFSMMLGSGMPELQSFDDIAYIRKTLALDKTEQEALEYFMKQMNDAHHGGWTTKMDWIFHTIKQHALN
By IC50 is commonly meant the concentration that gives 50% inhibition. Low values mean inhibition by little substance, high ones a need for much substance. The molecule `CC(=O)Nc1cc(-c2nc(-c3cccc(OC(F)(F)F)c3)c(-c3ncc[nH]3)s2)ccn1` registered an IC50 of 100 to 1000 nM.
`CC(=O)Nc1cc(-c2nc(-c3ccc(O)cc3)c(-c3ncc[nH]3)s2)ccn1` yielded an IC50 of 100 to 1000 nM.
`Cc1nn2ccc(OCCN3CCC(O)CC3)cc2c1-c1nc(-c2ccccc2)c(-c2nc[nH]n2)s1` showed an IC50 below 100 nM.
`N#Cc1c(-c2ccnc(NCCO)c2)sc(-c2nnc[nH]2)c1-c1ccc(Cl)cc1Cl`: the IC50 is below 100 nM.
To `Cc1nn2ccc(OC3CCNCC3)cc2c1-c1nc(-c2ccccc2)c(-c2nc[nH]n2)s1` belongs below 100 nM; to `Cc1nn2ccc(OCCNC(=O)c3cn(C)cn3)cc2c1-c1nc(-c2ccccc2)c(-c2nc[nH]n2)s1`, below 100 nM.
Molecule `CCOc1nc(-c2ccnc(NC(=O)c3ccco3)c2)sc1-c1nnc[nH]1` had an IC50 of 100 to 1000 nM.
To `Cc1nn2ccccc2c1-c1nc(-c2ccc(N3CCOCC3)nc2)c(-c2nc[nH]n2)s1` belongs 100 to 1000 nM.
To `CNc1ncc(Cl)c(-c2sc(-c3nnc[nH]3)c(-c3ccc(Cl)cc3Cl)c2C#N)n1` belongs 100 to 1000 nM; to `CCCOc1nc(-c2c(C)nn3ccccc23)sc1-c1nnc[nH]1`, below 100 nM.
On to `COCCNc1nccc(-c2sc(-c3nnc[nH]3)c(-c3ccc(Cl)cc3Cl)c2C#N)n1`, for which the IC50 was below 100 nM.
As for `O=C(CCSc1ccccc1)Nc1cc(-c2nc(-c3ccccc3)c(-c3nnc[nH]3)s2)ccn1`, the figure is 100 to 1000 nM; as for `CC(=O)Nc1cc(-c2nc(-c3ccccc3)c(-c3nnc[nH]3)s2)cc(C)n1`, 100 to 1000 nM.
As to `COCCNc1cc(-c2sc(-c3nnc[nH]3)c(-c3ccc(Cl)cc3Cl)c2C#N)ccn1`, the IC50 lay in the range of 100 to 1000 nM.
Consider `Cc1nc2ccc(Br)cn2c1-c1nc(-c2ccccc2)c(-c2nc[nH]n2)s1`, for which the IC50 lay in the range of 100 to 1000 nM.
Consider `Cc1nn2ccsc2c1-c1nc(-c2ccc(F)c(F)c2)c(-c2nnc[nH]2)s1`, for which the IC50 was below 100 nM.
As for `CC(=O)Nc1cc(-c2sc(-c3nnc[nH]3)c(-c3ccc(Cl)cc3Cl)c2C#N)ccn1`, the figure is below 100 nM; as for `Nc1cc(-c2nc(-c3ccc(Cl)cc3Cl)c(-c3ncc[nH]3)s2)ncn1`, 100 to 1000 nM; as for `COc1cccc(F)c1-c1nc(-c2c(C)nn3ccc(OC4CCN(C(C)=O)CC4)cc23)sc1-c1nc[nH]n1`, below 100 nM.
As for `COCCCNc1cc(-c2sc(-c3nnc[nH]3)c(-c3ccc(Cl)cc3Cl)c2C#N)ccn1`, the figure is 100 to 1000 nM; as for `CC(=O)Nc1nc2c(-c3cc(-c4ccc(Cl)cc4Cl)c(-c4ncc[nH]4)s3)ncnc2s1`, 100 to 1000 nM; as for `Cc1nn2ccc(OCCN3CCOCC3)cc2c1-c1nc(-c2ccccc2F)c(-c2nc[nH]n2)s1`, below 100 nM.
`Clc1cc(-c2nc(-c3ccccc3)c(-c3nnc[nH]3)s2)ccn1` displayed an IC50 of 100 to 1000 nM.
Regarding `CC(=O)Nc1cc(-c2nc(-c3csc4ccccc34)c(-c3ncc[nH]3)s2)ccn1`, the IC50 was in the range of 100 to 1000 nM.
Consider `Nc1cc(-c2nc(-c3ccccc3)c(-c3nnc[nH]3)s2)ccn1`, for which the IC50 is 100 to 1000 nM.
As for `CC(=O)Nc1cc(-c2nc(-c3ccc(Cl)cc3Cl)c(-c3nc(C)c(C)[nH]3)s2)ccn1`, the figure is 100 to 1000 nM; as for `Cc1nn2ccc(OC3CCN(C(=O)CO)CC3)cc2c1-c1nc(-c2ccccc2)c(-c2nnc[nH]2)s1`, below 100 nM; as for `c1ccc(-c2nc(-c3ccnc4[nH]ccc34)sc2-c2nnc[nH]2)cc1`, below 100 nM.
`O=C(Nc1cc(-c2nc(-c3ccccc3)c(-c3nnc[nH]3)s2)ccn1)C1CC1` returned an IC50 below 100 nM.
Molecule `N#Cc1c(-c2ccnc(NC(=O)C3CC3)c2)sc(-c2ncc[nH]2)c1-c1ccc(Cl)cc1Cl` registered an IC50 below 100 nM.
Consider `Cc1nn2ccc(OCCN3CCCCC3)cc2c1-c1nc(-c2ccccc2F)c(-c2nc[nH]n2)s1`, for which the IC50 was below 100 nM.
Take `CC(=O)Nc1cc(-c2sc(-c3nccn3C)c(-c3ccc(Cl)cc3Cl)c2C#N)ccn1`: the IC50 fell in the range of 100 to 1000 nM.
To `CC(=O)Nc1cc(-c2nc(-c3cccc(C(F)(F)F)c3)c(-c3ncc[nH]3)s2)ccn1` belongs 100 to 1000 nM; to `Cc1nc2ccc(CN(CCN)Cc3ccccc3)cn2c1-c1nc(-c2ccccc2)c(-c2nnc[nH]2)s1`, below 100 nM.
As for `COc1cccc(F)c1-c1nc(-c2c(C)nn3ccc(OCCN4CCN(S(C)(=O)=O)CC4)cc23)sc1-c1nc[nH]n1`, the figure is below 100 nM.
To `N#Cc1c(-c2ccnc(F)c2)sc(C(N)=O)c1-c1ccc(Cl)cc1Cl` belongs 100 to 1000 nM; to `N#Cc1c(-c2ccnc(N)c2)sc(-c2ccn[nH]2)c1-c1ccc(Cl)cc1Cl`, 100 to 1000 nM.
`CC(=O)Nc1cc(-c2sc(-c3nccn3Cc3cccnc3)c(-c3ccc(Cl)cc3Cl)c2C#N)ccn1` gave an IC50 of 100 to 1000 nM.
With `N#Cc1c(-c2ccnc(NCCO)n2)sc(-c2nnc[nH]2)c1-c1ccc(Cl)cc1Cl`, the 50% inhibitory concentration (IC50) was below 100 nM.
`CC(=O)Nc1cc(-c2nc(-c3ccc(Cl)cc3)c(-c3ncc[nH]3)s2)ccn1` yielded an IC50 of 100 to 1000 nM.
In turn, `CC(=O)N1CCN(CCOc2ccn3nc(C)c(-c4nc(-c5ccccc5)c(-c5nc[nH]n5)s4)c3c2)CC1` had an IC50 below 100 nM.
As for `COC[C@H]1CCCN1CCC(=O)Nc1cc(-c2nc(-c3ccccc3)c(-c3nnc[nH]3)s2)ccn1`, the IC50 was below 100 nM.
`Clc1ccc(-c2cc(-c3ccnc4[nH]cnc34)sc2-c2ncc[nH]2)c(Cl)c1` displayed an IC50 below 100 nM.
`Cc1nn2ccc(OCCN3CCOCC3)cc2c1-c1nc(-c2ccccc2)c(-c2nnc[nH]2)s1` yielded an IC50 below 100 nM.
To `Cc1nn2ccc(OCCN3CCC(F)CC3)cc2c1-c1nc(-c2ccccc2)c(-c2nc[nH]n2)s1` belongs below 100 nM.
`Cc1nc2ccc(C3CCCCC3)cn2c1-c1nc(-c2ccccc2)c(-c2nc[nH]n2)s1` showed an IC50 of 100 to 1000 nM.
Molecule `CC(=O)Nc1cc(-c2nc(-c3cn(C)nc3C(F)(F)F)c(-c3ncc[nH]3)s2)ccn1` came in with an IC50 below 100 nM.
The molecule `COC(=O)Nc1cc(-c2nc(-c3ccc(Cl)cc3Cl)c(-c3ncc[nH]3)s2)ccn1` registered an IC50 below 100 nM.
As for `O=c1ccc2c(-c3nc(-c4ccc(Cl)cc4Cl)c(-c4ncc[nH]4)s3)ccnc2[nH]1`, the figure is below 100 nM.
Turning to `CCOc1cccc(F)c1-c1nc(-c2c(C)nn3ccccc23)sc1-c1nc[nH]n1`, the IC50 was in the range of 100 to 1000 nM.
In turn, `Cc1nc2ccc(C(O)CO)cn2c1-c1nc(-c2ccccc2)c(-c2nnc[nH]2)s1` (stereo not given) had an IC50 below 100 nM.
On to `N#Cc1c(-c2ccnc(NCCCO)n2)sc(-c2nnc[nH]2)c1-c1ccc(Cl)cc1Cl`, for which the IC50 is below 100 nM.
As for `N#Cc1c(-c2ccncc2)sc(C(N)=O)c1-c1ccc(Cl)cc1Cl`, the figure is 100 to 1000 nM; as for `Nc1cc(-c2cc(-c3ccc(Cl)cc3Cl)c(-c3ncc[nH]3)s2)ccn1`, below 100 nM.
`N#Cc1c(-c2ccnc(NS(N)(=O)=O)c2)sc(-c2nnc[nH]2)c1-c1ccc(Cl)cc1Cl` had an IC50 of 100 to 1000 nM.
To `N#Cc1c(-c2ccnc(NS(=O)(=O)c3ccccc3)c2)sc(-c2nnc[nH]2)c1-c1ccc(Cl)cc1Cl` belongs 100 to 1000 nM; to `COC(=O)c1cccc(-c2nc(-c3c(C)nn4ccccc34)sc2-c2nc[nH]n2)c1`, 100 to 1000 nM.
As to `CC(C)CC(=O)Nc1cc(-c2sc(-c3ncc[nH]3)c(-c3ccc(Cl)cc3Cl)c2C#N)ccn1`, the IC50 was below 100 nM.
`CC(=O)N1CCC(Oc2ccn3nc(C)c(-c4nc(-c5ccccc5)c(-c5nc[nH]n5)s4)c3c2)CC1` yielded an IC50 below 100 nM.
With `CNC(=O)Nc1cc(-c2sc(-c3ccn[nH]3)c(-c3ccc(Cl)cc3Cl)c2C#N)ccn1`, the IC50 was in the range of 100 to 1000 nM.
`N#Cc1c(-c2ccnc(NC(N)=O)c2)sc(-c2ccn[nH]2)c1-c1ccc(Cl)cc1Cl` had a 50% inhibitory concentration (IC50) below 100 nM.
`Cc1nn2ccccc2c1-c1nc(-c2c(F)cccc2F)c(-c2nc[nH]n2)s1` registered an IC50 below 100 nM.
For the molecule `Cc1nn2ccccc2c1-c1nc(-c2cc(F)ccc2F)c(-c2nc[nH]n2)s1`, the IC50 is below 100 nM.
For the molecule `N#Cc1c(-c2ccnc(N)c2)sc(C(N)=O)c1-c1ccc(Cl)cc1Cl`, the IC50 was below 100 nM.
In turn, `Cc1nc2ccc(CCN)cn2c1-c1nc(-c2ccccc2)c(-c2nnc[nH]2)s1` showed an IC50 below 100 nM.
The molecule `Cc1nc2scc(C)n2c1-c1nc(-c2ccccc2)c(-c2nc[nH]n2)s1` showed an IC50 of 100 to 1000 nM.
To `O=C(Nc1cc(-c2cc(-c3ccc(Cl)cc3Cl)c(-c3ncc[nH]3)s2)ccn1)C1CC1` belongs below 100 nM.
To `Cc1nn2ccccc2c1-c1cc(-c2ccccc2)c(-c2nnc[nH]2)s1` belongs below 100 nM; to `Cc1nn2ccccc2c1-c1nc(-c2ccc(F)cc2)c(-c2nnc[nH]2)s1`, below 100 nM; to `CC(=O)Nc1cc(-c2nc(-c3ccccc3C(F)(F)F)c(-c3nnc[nH]3)s2)ccn1`, 100 to 1000 nM.
As for `N#Cc1c(-c2cc(N)ncn2)sc(C(N)=O)c1-c1ccc(Cl)cc1Cl`, the figure is 100 to 1000 nM.
`CC(=O)Nc1cc(-c2nc(-c3ccc(Cl)cc3Cl)c(-c3ncc[nH]3)s2)ccn1`: the IC50 is below 100 nM.
As for `CC(=O)Nc1cc(-c2nc(-c3cc(C(=O)N4CCCC4)ccc3F)c(-c3ncc[nH]3)s2)ccn1`, the figure is 100 to 1000 nM.
As for `CC(=O)Nc1cc(-c2nc(-c3ccc(C)cc3)c(-c3ncc[nH]3)s2)ccn1`, the IC50 is below 100 nM.
As for `Cc1nn2ccccc2c1-c1nc(OCc2ccccc2)c(-c2nnc[nH]2)s1`, the figure is below 100 nM; as for `CC(=O)Nc1cc(-c2nc(-c3cccc(Cl)c3)c(-c3ncc[nH]3)s2)ccn1`, 100 to 1000 nM; as for `Cc1nn2ccccc2c1-c1nc(-c2cnn(CCN3CCOCC3)c2)c(-c2nc[nH]n2)s1`, 100 to 1000 nM.
As for `Cc1nn2ccccc2c1-c1nc(-c2ccccc2F)c(-c2nnc[nH]2)s1`, the IC50 is below 100 nM.
As for `CC(=O)Nc1cc(-c2nc(-c3ccc(Cl)cc3Cl)c(-c3nnc[nH]3)s2)ccn1`, the figure is below 100 nM; as for `Cc1nc2ccc(CNCCN)cn2c1-c1nc(-c2ccccc2)c(-c2nnc[nH]2)s1`, below 100 nM; as for `C=CCOc1nc(-c2c(C)nn3ccccc23)sc1-c1nnc[nH]1`, below 100 nM.
As for `Cc1nn2ccccc2c1-c1nc(-c2ccccc2Cl)c(-c2nnc[nH]2)s1`, the figure is below 100 nM.
Turning to `CC(C)C(=O)Nc1cc(-c2sc(-c3ncc[nH]3)c(-c3ccc(Cl)cc3Cl)c2C#N)ccn1`, the IC50 is below 100 nM.
With `N#Cc1c(-c2ccnc(NC(=O)C3CC3)c2)sc(-c2ccn[nH]2)c1-c1ccc(Cl)cc1Cl`, the IC50 is below 100 nM.
The molecule `Cc1nc2ccc(C=O)cn2c1-c1nc(-c2ccccc2)c(-c2nnc[nH]2)s1` yielded an IC50 below 100 nM.

For the origin of these results see the Kinase Knowledgebase extract (Sharma et al. 2016).
